Laboratory results as given in patent US20050136017A1, “Hair relaxing composition comprising at least one non-hydroxide imine” (priority 2003, published 2005).

Legend:
[1] = Relaxing of naturally curly/frizzy African hair with a simplified aqueous relaxing composition
Method: (§1) A simplified relaxing composition was prepared, containing, as relaxing active agent, 1,1-dimethylbiguanide (Registry Number [1115-70-4]) at a concentration of 0.75M in water. The pH of the composition was 13.6. The composition was applied to naturally curly/frizzy African hair for 15 minutes at a temperature of 30° C.
as §1, with “of 0.5M” for “of 0.75M”, “was 13.5. This” for “was 13.6. The”, “for 25” for “for 15”
(§2) A simplified relaxing composition was prepared, containing as relaxing active agent, 1,3,4,6,7,8-hexahydro-2H-pyrimido[1,2-a]pyrimidine (Registry Number [5807-14-7]) at a concentration of 0.7M in water. The pH of the composition was 13.5. This composition was applied to naturally curly/frizzy African hair for 15 minutes at a temperature of 30° C.
as §2, with “0.5M” for “0.7M”, “13.4.” for “13.5.”, “25” for “15”

[2] = pH of the simplified relaxing composition; type: physicochemical
Method: as §1
as §1, with “of 0.5M” for “of 0.75M”, “was 13.5. This” for “was 13.6. The”, “for 25” for “for 15”
as §2
as §2, with “0.5M” for “0.7M”, “13.4.” for “13.5.”, “25” for “15”

[3] = 0.5M in water (Examples 2 and 4)

pH of the composition [2, 3] | pH of the composition ([2]; 0.7M in water (Example 3)) | pH of the composition ([2]; 0.75M in water (Example 1)) | SMILES | hair relaxing result (relaxing, combing/styling, feel) ([1]; 0.5M in water, pH 13.4, applied 25 minutes at 30° C. (Example 4)) | hair relaxing result (relaxing, combing/styling, feel) ([1]; 0.7M in water, pH 13.5, applied 15 minutes at 30° C. (Example 3)) | hair relaxing result (relaxing, combing/styling, feel) ([1]; 0.5M in water, pH 13.5, applied 25 minutes at 30° C. (Example 2)) | hair relaxing result (relaxing, combing/styling, feel) ([1]; 0.75M in water, pH 13.6, applied 15 minutes at 30° C. (Example 1))
13.4 | 13.5 |  | C1CN=C2NCCCN2C1 [1,3,4,6,7,8-hexahydro-2H-pyrimido[1,2-a]pyrimidine] | efficiently relaxed, easy to comb and style, and felt soft | efficiently relaxed, easy to comb and style, and felt soft |  | 
13.5 |  | 13.6 | CN(C)C(=N)NC(=N)N [1,1-dimethylbiguanide] |  |  | efficiently relaxed, easy to comb and style, and felt soft | efficiently relaxed, easy to comb and style, and felt soft
